Holding throughout (assay): biochemical
Holding throughout (parameters): Eurofins recombinant human kinase profiling, remaining kinase activity as % of control, 10 uM ATP
Holding throughout (conditions): ATP 10 uM; read-out: %Ctrl@10 μM

In one assay the target is CDK2/cyclinA(h) (Homo sapiens, UniProt P24941). Summed up: (§1)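 Recombinant human kinases, 401 in total, screened using an outsourced kinase profiling assay.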
Another assay concerns the target CDK6/cyclinD3(h) (Homo sapiens, UniProt Q00534). Summed up:
as §1

A further assay addresses T1, CaMKIIβ(h) (Homo sapiens, UniProt Q13554).
T1 construct: gene CAMK2B
The gist of the method:
as §1

A further assay deals with T2, CaMKIIδ(h) (Homo sapiens, UniProt Q13557).
T2 construct: gene CAMK2D
The gist of the method:
as §1

Another assay has as its target DYRK1B(h) (Homo sapiens, UniProt Q9Y463). The gist of the method: as §1
The target of another assay is EGFR(T790M)(h) (Homo sapiens, UniProt P00533, T790M). Summed up:
as §1

The target of the next assay is EphB1(h) (Homo sapiens, UniProt P54762). Summed up:
as §1

Another assay addresses FGFR2(N549H)(h) (Homo sapiens, UniProt P21802, N549H). The gist of the method:
as §1

A further assay concerns the target FGFR4(h) (Homo sapiens, UniProt P22455). Summed up: as §1
A further assay concerns the target T3, GCN2(h) (Homo sapiens, UniProt Q9P2K8).
T3 construct: gene EIF2AK4
Summed up: as §1

A further assay has as its target T4, IKKβ(h) (Homo sapiens, UniProt O14920).
T4 construct: gene IKBKB
The gist of the method: as §1

A further assay deals with T5, IR(h) (Homo sapiens, UniProt P06213).
T5 construct: gene INSR
The gist of the method: as §1

In another assay the target is T6, JNK2α2(h) (Homo sapiens, UniProt P45984).
T6 construct: gene MAPK9; isoform alpha2
Summed up:
as §1

The target in a further assay is T7, JNK3(h) (Homo sapiens, UniProt P53779).
T7 construct: gene MAPK10
The gist of the method: as §1

The target in the next assay is KDR(h) (Homo sapiens, UniProt P35968). The gist of the method: as §1
The target of the next assay is T8, LKB1(h) (Homo sapiens, UniProt Q15831).
T8 construct: gene STK11
The gist of the method:
as §1

The next assay deals with T9, MSSK1(h) (Homo sapiens, UniProt Q9UPE1).
T9 construct: gene SRPK3
The gist of the method: as §1

The target in a further assay is NEK1(h) (Homo sapiens, UniProt Q96PY6). Summed up: as §1
In a further assay the target is NEK3(h) (Homo sapiens, UniProt P51956). The gist of the method:
as §1

The target in a further assay is PAK3(h) (Homo sapiens, UniProt O75914). Summed up:
as §1

The target of another assay is T10, Rsk3(h) (Homo sapiens, UniProt Q15349).
T10 construct: gene RPS6KA2
The gist of the method:
as §1

In another assay the target is WNK2(h) (Homo sapiens, UniProt Q9Y3S1). Summed up:
as §1

For another assay, the target named is mTOR(h) (Homo sapiens, UniProt P42345). The gist of the method:
as §1

Molecules are shown by their SMILES.

T4 sequence (O14920 whole entry): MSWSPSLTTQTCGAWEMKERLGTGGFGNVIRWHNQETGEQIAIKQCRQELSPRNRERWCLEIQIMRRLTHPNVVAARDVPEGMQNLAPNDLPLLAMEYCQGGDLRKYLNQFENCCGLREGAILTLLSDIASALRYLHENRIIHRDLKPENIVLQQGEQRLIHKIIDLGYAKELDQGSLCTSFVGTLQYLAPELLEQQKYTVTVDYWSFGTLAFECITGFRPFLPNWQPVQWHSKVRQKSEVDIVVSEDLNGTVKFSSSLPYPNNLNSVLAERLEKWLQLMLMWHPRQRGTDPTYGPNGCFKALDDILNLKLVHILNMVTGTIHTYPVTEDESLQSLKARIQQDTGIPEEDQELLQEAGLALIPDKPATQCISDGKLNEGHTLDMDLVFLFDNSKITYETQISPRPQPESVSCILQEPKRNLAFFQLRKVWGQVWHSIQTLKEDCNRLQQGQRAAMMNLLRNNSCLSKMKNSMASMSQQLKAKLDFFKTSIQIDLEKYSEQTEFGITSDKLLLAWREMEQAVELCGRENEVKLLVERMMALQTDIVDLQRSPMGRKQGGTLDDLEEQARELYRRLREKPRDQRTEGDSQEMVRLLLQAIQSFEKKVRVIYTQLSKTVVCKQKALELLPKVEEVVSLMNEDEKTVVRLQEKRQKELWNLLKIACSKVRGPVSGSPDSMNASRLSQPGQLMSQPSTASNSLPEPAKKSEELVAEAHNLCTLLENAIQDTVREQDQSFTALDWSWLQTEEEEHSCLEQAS
T6 sequence (P45984 whole entry, canonical isoform): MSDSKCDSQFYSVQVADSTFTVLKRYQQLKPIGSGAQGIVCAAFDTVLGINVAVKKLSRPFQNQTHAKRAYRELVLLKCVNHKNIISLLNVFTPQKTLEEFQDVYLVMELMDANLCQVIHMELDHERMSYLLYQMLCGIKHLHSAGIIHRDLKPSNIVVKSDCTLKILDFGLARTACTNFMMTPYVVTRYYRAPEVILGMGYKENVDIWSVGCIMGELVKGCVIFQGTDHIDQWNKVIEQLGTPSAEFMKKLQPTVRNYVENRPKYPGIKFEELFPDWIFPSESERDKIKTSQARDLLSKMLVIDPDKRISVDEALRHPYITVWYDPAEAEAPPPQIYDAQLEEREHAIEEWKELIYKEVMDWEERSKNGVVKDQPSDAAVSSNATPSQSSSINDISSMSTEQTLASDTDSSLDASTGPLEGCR
T8 sequence (Q15831 whole entry): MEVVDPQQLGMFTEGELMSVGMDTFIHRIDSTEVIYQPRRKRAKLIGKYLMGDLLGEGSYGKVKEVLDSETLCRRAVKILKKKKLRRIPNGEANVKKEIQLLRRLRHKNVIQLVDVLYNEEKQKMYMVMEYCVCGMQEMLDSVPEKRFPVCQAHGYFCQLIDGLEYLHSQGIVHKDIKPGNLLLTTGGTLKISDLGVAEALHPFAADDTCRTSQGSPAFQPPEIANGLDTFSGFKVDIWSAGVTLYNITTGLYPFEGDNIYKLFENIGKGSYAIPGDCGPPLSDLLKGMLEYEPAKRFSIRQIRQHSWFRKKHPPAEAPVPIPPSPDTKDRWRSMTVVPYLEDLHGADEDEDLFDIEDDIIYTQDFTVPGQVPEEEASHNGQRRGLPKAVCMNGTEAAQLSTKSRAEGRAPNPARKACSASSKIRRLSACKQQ
T8 sequence (Q7RTN6 whole entry partner): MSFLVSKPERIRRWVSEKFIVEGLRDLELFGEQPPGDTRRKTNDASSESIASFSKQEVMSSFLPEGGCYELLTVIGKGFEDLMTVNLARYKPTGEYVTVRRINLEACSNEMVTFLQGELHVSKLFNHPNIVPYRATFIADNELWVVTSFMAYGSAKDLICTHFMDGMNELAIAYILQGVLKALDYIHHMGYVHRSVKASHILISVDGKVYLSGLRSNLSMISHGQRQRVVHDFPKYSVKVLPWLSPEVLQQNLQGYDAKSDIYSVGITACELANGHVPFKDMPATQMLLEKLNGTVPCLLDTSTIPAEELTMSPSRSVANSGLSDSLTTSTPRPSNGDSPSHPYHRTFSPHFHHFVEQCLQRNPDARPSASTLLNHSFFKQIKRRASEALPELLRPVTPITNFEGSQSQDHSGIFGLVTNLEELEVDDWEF
T8 sequence (Q9Y376 whole entry partner): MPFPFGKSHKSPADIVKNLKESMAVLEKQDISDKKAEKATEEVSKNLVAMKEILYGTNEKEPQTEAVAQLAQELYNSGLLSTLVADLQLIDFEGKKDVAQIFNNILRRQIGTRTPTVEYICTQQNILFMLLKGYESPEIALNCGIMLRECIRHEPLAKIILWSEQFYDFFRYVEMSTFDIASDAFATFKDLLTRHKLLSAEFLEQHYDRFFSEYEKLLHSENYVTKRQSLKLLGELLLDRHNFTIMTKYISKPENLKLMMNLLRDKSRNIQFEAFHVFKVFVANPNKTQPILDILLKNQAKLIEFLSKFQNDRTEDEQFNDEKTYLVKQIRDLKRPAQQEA
Chain of EGFR(T790M)(h) (P00533 whole entry T790M): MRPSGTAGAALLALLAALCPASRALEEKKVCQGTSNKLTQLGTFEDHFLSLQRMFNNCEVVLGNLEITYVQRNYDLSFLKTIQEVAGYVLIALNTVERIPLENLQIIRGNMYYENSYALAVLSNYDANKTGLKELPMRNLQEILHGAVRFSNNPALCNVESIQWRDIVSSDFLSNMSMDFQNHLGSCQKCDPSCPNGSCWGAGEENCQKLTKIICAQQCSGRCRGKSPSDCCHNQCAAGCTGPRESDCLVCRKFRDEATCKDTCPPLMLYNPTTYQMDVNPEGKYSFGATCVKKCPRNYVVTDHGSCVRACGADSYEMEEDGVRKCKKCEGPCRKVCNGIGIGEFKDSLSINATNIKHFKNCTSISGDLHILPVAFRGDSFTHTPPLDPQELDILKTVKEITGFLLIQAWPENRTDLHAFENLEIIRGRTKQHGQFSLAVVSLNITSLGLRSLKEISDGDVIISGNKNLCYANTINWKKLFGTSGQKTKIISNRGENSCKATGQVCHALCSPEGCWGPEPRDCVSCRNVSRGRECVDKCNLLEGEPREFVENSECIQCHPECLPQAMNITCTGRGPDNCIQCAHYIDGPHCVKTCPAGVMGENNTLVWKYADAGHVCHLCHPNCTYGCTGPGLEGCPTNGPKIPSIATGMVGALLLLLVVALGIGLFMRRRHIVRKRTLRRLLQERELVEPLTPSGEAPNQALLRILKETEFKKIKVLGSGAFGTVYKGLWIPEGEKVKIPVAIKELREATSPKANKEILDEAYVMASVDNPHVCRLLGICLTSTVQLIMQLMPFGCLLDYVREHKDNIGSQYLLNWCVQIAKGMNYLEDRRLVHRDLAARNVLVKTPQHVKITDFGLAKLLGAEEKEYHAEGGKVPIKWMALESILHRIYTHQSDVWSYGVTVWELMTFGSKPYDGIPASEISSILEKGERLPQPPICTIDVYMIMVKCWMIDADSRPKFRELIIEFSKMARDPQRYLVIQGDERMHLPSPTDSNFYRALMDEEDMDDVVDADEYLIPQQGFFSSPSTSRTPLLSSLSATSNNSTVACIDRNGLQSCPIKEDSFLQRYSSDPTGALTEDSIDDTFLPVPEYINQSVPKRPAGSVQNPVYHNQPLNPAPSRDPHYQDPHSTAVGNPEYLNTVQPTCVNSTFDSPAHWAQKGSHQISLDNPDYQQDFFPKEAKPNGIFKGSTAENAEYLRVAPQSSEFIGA
T2 sequence (Q13557 whole entry): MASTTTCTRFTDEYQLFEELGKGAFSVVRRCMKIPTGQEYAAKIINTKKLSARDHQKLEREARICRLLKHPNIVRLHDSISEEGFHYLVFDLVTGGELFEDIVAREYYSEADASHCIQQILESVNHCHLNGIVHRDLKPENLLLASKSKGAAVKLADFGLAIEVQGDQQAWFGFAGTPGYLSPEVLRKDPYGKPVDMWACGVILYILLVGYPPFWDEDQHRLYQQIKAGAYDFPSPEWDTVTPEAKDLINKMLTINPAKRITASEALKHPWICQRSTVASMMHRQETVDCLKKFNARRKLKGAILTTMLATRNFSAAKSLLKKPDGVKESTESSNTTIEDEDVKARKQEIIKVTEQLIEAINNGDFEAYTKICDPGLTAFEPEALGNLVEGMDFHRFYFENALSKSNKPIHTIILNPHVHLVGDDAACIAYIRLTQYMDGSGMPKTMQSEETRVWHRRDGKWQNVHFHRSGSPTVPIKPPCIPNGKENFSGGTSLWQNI
Chain of FGFR4(h) (P22455 whole entry): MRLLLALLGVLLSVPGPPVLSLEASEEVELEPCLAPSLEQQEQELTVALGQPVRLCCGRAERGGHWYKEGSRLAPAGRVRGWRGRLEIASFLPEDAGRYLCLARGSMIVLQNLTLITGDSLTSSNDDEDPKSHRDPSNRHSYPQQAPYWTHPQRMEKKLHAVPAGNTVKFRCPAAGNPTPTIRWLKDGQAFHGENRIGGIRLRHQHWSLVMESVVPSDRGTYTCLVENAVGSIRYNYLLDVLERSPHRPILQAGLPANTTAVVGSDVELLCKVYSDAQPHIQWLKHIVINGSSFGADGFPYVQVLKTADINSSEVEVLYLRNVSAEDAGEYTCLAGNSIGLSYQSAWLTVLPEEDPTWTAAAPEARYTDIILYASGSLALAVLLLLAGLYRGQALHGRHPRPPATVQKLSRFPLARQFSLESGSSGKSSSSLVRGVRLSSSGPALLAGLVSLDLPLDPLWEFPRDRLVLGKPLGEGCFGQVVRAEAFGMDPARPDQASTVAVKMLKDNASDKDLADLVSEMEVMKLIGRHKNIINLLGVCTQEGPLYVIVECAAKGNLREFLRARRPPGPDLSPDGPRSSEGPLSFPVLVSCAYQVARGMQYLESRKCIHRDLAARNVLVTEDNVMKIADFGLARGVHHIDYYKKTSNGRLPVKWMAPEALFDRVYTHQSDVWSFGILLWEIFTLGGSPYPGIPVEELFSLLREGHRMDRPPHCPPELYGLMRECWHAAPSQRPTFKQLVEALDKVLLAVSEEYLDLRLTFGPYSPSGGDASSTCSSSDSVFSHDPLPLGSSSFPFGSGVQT

As for `C1=C(c2nc(-c3cnn(C4CCNCC4)c3)cn3cc(-c4ccccc4)nc23)CCOC1` [YL-939], the remaining activity at 10 µM at CDK2/cyclinA(h) stood at 95%; on CDK6/cyclinD3(h), 94%; at CaMKIIβ(h), 70%; on CaMKIIδ(h), 68%; at DYRK1B(h), 97%; at EGFR(T790M)(h), 138%. Besides, the remaining activity at 10 µM amounted to 99% on EphB1(h); 94% at FGFR2(N549H)(h); 94% at FGFR4(h); 67% on GCN2(h); 87% at IKKβ(h); 114% at IR(h). In addition, the remaining activity at 10 µM came to 72% on JNK2α2(h); 65% on JNK3(h); 108% on KDR(h); 87% at LKB1(h); 87% at MSSK1(h); 105% on NEK1(h). The remaining activity at 10 µM is 102% on NEK3(h); 70% at PAK3(h); 96% on Rsk3(h); 76% on WNK2(h); 91% on mTOR(h).
